The record followed here is PubChem BioAssay (NCI).

Assay in all cases: growth of human tumour cells (NCI), 48 h
The subject of test [1] is PC-3 prostate.
Test [2] relates to HOP-62 NSCLC.
Test [3] deals with KM12 colon.
The test system of test [4] is HL-60(TB) leukemia.
The test system of test [5] is SK-OV-3 ovarian.
The subject of test [6] is NCI-H226 lung.
Test [7] deals with ACHN renal.
The test system of test [8] is SF-268 CNS.
In test [9] the test system is HCT-15 colon.
Test [10] concerns OVCAR-4 ovarian.

Values joined by “and” are separate entries in the source; they are usually repeats but may differ in a detail not shown here. Equal entries are not always repeated.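 These data come from cells grown in 96-well plates and exposed to compound for 48 hours at five concentrations. At the GI50, growth is halved. TGI marks complete inhibition of growth.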 A value given as a limit tells only on which side of the number the result lay.

On to `N/N=C\c1c2ccccc2c(=O)n2c1oc1ccccc12`, for which the GI50 in test [1] is 12.7 µM; in test [2], 16.9 µM; in [3], 14600 nM; in test [4] it was 21100 nM; in test [5], 17.6 µM; in test [6] it was 14.6 µM. Besides, the GI50 in [7] is 16.3 µM; in test [8], 15.9 µM; in [9] it was 17.3 µM; in [10], 13100 nM. Also, the TGI in test [1] came to 26.4 µM; in [2], 32.9 µM; in [3], 27.7 µM; in [4], 50.9 µM; in test [5], 34.3 µM; in test [6], 33.9 µM. Moreover, the TGI in [7] is 29.9 µM; in [8] it was 30.4 µM; in test [9], 34.6 µM; in test [10], more than 100 µM.

In the case of `NC(CSC(c1ccccc1)(c1ccccc1)c1ccccc1)C(=O)NCC(=O)O` (centres undefined), the GI50 in [1] is 5.25 µM; in test [2], 8.16 µM; in [3] it was 3960 nM; in test [4], 2850 nM; in [5] it was 4.33 µM; in test [6], 23.4 µM. Besides, the GI50 in test [7] is 18.9 µM; in [8], 5.38 µM; in [9] it was 4.89 µM; in test [10] it was 17400 nM. The TGI is more than 100 µM in [1]; more than 100 µM in [2]; 38.4 µM in test [3]; 12 µM in test [4]; 43.7 µM in test [5]; more than 100 µM in [6]. For the same compound, the TGI in test [7] is more than 100 µM; in [8] it was more than 100 µM; in [9], more than 100 µM; in test [10], 95.6 µM.

On to `O=NNc1ccc2ccccc2n1`, for which the TGI in [1], in test [2], in [3], in test [4], in test [5] and in [6] was more than 100 µM in each case. In addition, the TGI in [7], in [8], in test [9] and in test [10] was more than 100 µM each time.

In the case of `CCN1C(=O)c2ccc3c4c(ccc(c24)C1=O)C(=O)N(CCCNCc1ccccc1OC)C3=O`, the GI50 in [1] is 0.613 µM; in test [2], 0.925 µM; in [3] it was 630 nM; in test [4], 1110 nM; in [5], 2.28 µM; in test [6], 1.28 µM. Moreover, the GI50 in [7] was 0.553 µM; in test [8], 1.15 µM; in test [9], 0.291 µM; in test [10], 152 nM. In addition, the TGI in [1] was 5.18 µM; in test [2], 2.78 µM; in [3], 3.75 µM; in test [4], 3.6 µM; in test [5], 7.04 µM; in [6] it was 2.77 µM. Moreover, the TGI in test [7] is 4.63 µM; in test [8], 5.75 µM; in test [9], 1.07 µM; in test [10], 0.345 µM.

Turning to `COc1ccc2c(c1)NC1=C(C(=O)OC1)C2c1cc(OC)c(OC)c(OC)c1` (centres undefined), the GI50 in test [1] is less than 0.01 µM; in [2] it was less than 0.01 µM; in test [3] it was less than 10 nM; in test [4] it was less than 10 nM; in [5] it was less than 0.01 µM; in test [6] it was less than 0.01 µM. Besides, the GI50 in test [7] was less than 0.01 µM; in test [8], less than 0.01 µM; in test [9], less than 0.01 µM; in test [10], less than 37.5 nM. For the same compound, the TGI in [1] is more than 100 µM; in test [2], 42.5 µM; in test [3], more than 100 µM; in test [4], less than 0.01 µM; in test [6], more than 100 µM; in test [7], more than 100 µM. Also, the TGI in test [8], in test [9] and in test [10] was more than 100 µM each time.

`N[C@H](C(=O)O)[C@@H]1CC(Cl)=NO1`: the GI50 in test [1] is 11.5 µM; in test [2], 6.27 µM; in [4], 4890 nM; in test [5] it was 34.5 µM; in [6] it was 39.9 µM and 10.8 µM; in test [7], 28.4 µM. In addition, the GI50 in test [8] was 10.2 µM; in test [9] it was 8.33 µM. Further, the TGI is more than 1000 µM in [1]; 170 µM in test [2]; more than 741 µM in [3]; more than 584 µM in test [5]; more than 316 µM in test [6]; more than 1000 µM in [7]. In addition, the TGI in test [8] was more than 848 µM; in [9], more than 912 µM; in [10], more than 653 µM.

For the compound `COCCOC(=O)C1=C(O)c2ccccc2S(=O)(=O)N1C`, the TGI in test [1], in test [2], in test [3], in test [4], in test [5] and in test [6] was more than 100 µM in each case. Further, the TGI in test [7], in [8], in test [9] and in test [10] was more than 100 µM each time.

For the compound `C=C1c2c(C)nn(-c3ccc(C#CCOC4OC(CO)C(O)C(O)C4O)cc3)c2N(C)C23C[C@H]1C1(C)c4c(C)nn(-c5ccc(C#CCOC6OC(CO)C(O)C(O)C6O)cc5)c4N(C)C(C)(C[C@H]12)C3` (some centres undefined), the GI50 in [1] was 0.702 µM; in test [2], 1.49 µM; in test [3], 1440 nM; in test [4], 2070 nM; in test [5], 1.72 µM; in test [6], 1.62 µM. Besides, the GI50 in test [7] is 2.42 µM; in test [8], 1.75 µM; in [10] it was 1680 nM. In addition, the TGI in [1] stood at 2.56 µM; in [2], 2.88 µM; in [3], 2.9 µM; in test [4], 4.43 µM; in test [5] it was 3.11 µM; in [6], 3.7 µM. The TGI came to 10.6 µM in [7], 3.57 µM in test [8] and 9.94 µM in [10].
